How the values were obtained:
Type in all cases: cell-based
AHR [1] = biological target: T1, AHR (Homo sapiens, UniProt P35869); test: In vitro assay 3: AHR-regulated CYP1A1 expression in human cell line (U937, qPCR, KA stimulation); details: U937 cells, 200 uM KA, 6 hours, CYP1A1 expression by qPCR; read-out: Assay 3: Hum CYP1A1 Antagonism IC50
T1 sequence (P35869 11-848): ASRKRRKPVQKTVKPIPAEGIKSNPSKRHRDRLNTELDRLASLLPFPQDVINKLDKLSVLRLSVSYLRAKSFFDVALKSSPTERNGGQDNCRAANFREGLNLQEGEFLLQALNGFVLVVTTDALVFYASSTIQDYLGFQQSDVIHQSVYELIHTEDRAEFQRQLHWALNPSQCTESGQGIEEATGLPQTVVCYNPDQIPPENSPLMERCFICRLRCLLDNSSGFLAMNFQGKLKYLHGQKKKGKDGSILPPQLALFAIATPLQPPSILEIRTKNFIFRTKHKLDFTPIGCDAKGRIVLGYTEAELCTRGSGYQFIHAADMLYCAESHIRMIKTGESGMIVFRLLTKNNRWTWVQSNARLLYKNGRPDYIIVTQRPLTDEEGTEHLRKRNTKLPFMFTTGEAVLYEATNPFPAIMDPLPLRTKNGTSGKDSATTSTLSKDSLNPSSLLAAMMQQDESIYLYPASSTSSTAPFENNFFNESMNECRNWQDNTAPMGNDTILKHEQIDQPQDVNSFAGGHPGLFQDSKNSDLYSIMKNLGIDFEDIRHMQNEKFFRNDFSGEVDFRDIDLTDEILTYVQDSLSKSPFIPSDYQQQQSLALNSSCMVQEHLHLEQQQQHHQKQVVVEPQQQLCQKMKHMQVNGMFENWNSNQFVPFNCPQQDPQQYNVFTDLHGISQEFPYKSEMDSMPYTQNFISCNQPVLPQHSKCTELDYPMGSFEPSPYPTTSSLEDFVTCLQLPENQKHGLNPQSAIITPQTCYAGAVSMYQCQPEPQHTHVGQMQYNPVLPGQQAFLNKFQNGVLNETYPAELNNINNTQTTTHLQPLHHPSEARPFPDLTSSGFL
How it was run: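 U937 human monocytic cells were stimulated with 200 uM KA for 6 h, with or without compound at eight concentrations from 1 nM to 3 uM, in duplicate. CYP1A1 mRNA was quantified by Taqman qPCR as fold expression normalised to HPRT. Unstimulated cells served as negative control.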

AHR [2] = biological target: T1, AHR; test: In vitro assay 1: antagonism in human cell line (transactivation assay, U87 cells prestimulated with kynurenic acid, DRE firefly luciferase reporter); parameters: host or cells: U87 glioblastoma cells, stably transfected with DRE firefly luciferase and renilla reporter constructs; details: 150 uM kynurenic acid, 20 hours, read-out: Assay 1: AHR-luc Hum Antagonism IC50
How it was run: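 Antagonism measured after kynurenic acid prestimulation in U87 cells that express AHR endogenously and stably harbor a firefly luciferase gene under DRE control plus a constitutive renilla construct. Positive and negative controls served for normalization.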

AHR [3] = biological target: T1, AHR; test: In vitro assay 2: agonism in human cell line (transactivation assay, U87 cells, DRE firefly luciferase reporter); parameters: host or cells: U87 glioblastoma cells, stably transfected with DRE firefly luciferase and renilla reporter constructs; details: no kynurenic acid, 20 hours, read-out: Assay 2: AHR-luc Hum Agonism IC50
How it was run: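 Agonist readout: DRE firefly luciferase, with constitutive renilla reporter, in stably transfected U87 cells expressing AHR endogenously. Normalization used positive control (300 uM kynurenic acid) and negative control.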

## Cn1cc(-n2nc(-c3ccc(C(F)(F)F)cc3)cc(C(=O)N[C@H](CO)CF)c2=O)cn1 [Example 211, N-[(2R)-1-Fluoro-3-hydroxypropan-2-yl]-2-(1-methyl-1H-pyrazol-4-yl)-3-oxo-6-[4-(trifluoromethyl)phenyl]-2,3-dihydropyridazine-4-carboxamide]
AHR [1]
  IC50: 2.67 nM
AHR [2]
  IC50: 1.62 nM
AHR [3]
  IC50: > 20000 nM

## C[C@@H](CO)NC(=O)c1cc(-c2ccc(Cl)cc2)nn(-c2ccc(F)s2)c1=O [Example 220, 6-(4-Chlorophenyl)-2-(5-fluoro-2-thienyl)-N-[(2S)-1-hydroxypropan-2-yl]-3-oxo-2,3-dihydropyridazine-4-carboxamide]
AHR [1]
  IC50: 1.96 nM
AHR [2]
  IC50: 3.36 nM
AHR [3]
  IC50: > 20000 nM

## Cn1cc(-n2nc(-c3ccc(Cl)cc3)cc(C(=O)N[C@@H](C#N)CO)c2=O)cn1 [Example 227, 6-(4-Chlorophenyl)-N-[(1S)-1-cyano-2-hydroxyethyl]-2-(1-methyl-1H-pyrazol-4-yl)-3-oxo-2,3-dihydropyridazine-4-carboxamide]
AHR [1]
  IC50: 11.6 nM
AHR [2]
  IC50: 5.99 nM
AHR [3]
  IC50: > 20000 nM

## O=C(NC[C@H](O)C(F)(F)F)c1cc(-c2ccc(Cl)cc2)nn(-c2csc(Cl)c2)c1=O [Example 232, 6-(4-Chlorophenyl)-2-(5-chloro-3-thienyl)-3-oxo-N-[(2S)-3,3,3-trifluoro-2-hydroxypropyl]-2,3-dihydropyridazine-4-carboxamide]
AHR [1]
  IC50: 7.38 nM
AHR [2]
  IC50: 8.16 nM
AHR [3]
  IC50: > 20000 nM

## C[C@@H](NC(=O)c1cc(-c2ccc(C(F)(F)F)cc2)nn(-c2cccnc2)c1=O)C(C)(C)O [Example 234, N-[(2R)-3-Hydroxy-3-methylbutan-2-yl]-3-oxo-2-(pyridin-3-yl)-6-[4-(trifluoromethyl)phenyl]-2,3-dihydropyridazine-4-carboxamide]
AHR [1]
  IC50: 9.6 nM
AHR [2]
  IC50: 8.42 nM
AHR [3]
  IC50: > 20000 nM

## O=C(NC[C@H](O)C(F)(F)F)c1cc(-c2ccc(Cl)cc2)nn(-c2cncnc2)c1=O [Example 237, 6-(4-Chlorophenyl)-3-oxo-2-(pyrimidin-5-yl)-N-[(2S)-3,3,3-trifluoro-2-hydroxypropyl]-2,3-dihydropyridazine-4-carboxamide]
AHR [1]
  IC50: 7.86 nM
AHR [2]
  IC50: 9.38 nM
AHR [3]
  IC50: > 20000 nM

## Cn1cc(-n2nc(-c3ccc(C(F)(F)F)cc3)cc(C(=O)N[C@H](CO)C3CC3)c2=O)cn1 [Example 238, N-[(1S)-1-Cyclopropyl-2-hydroxyethyl]-2-(1-methyl-1H-pyrazol-4-yl)-3-oxo-6-[4-(trifluoromethyl)phenyl]-2,3-dihydropyridazine-4-carboxamide]
AHR [1]
  IC50: 14.7 nM
AHR [2]
  IC50: 9.88 nM
AHR [3]
  IC50: > 20000 nM

## CC(C)(O)CNC(=O)c1cc(-c2ccc(C(F)(F)F)nc2)nn(-c2cnsc2)c1=O [Example 240, N-(2-Hydroxy-2-methylpropyl)-3-oxo-2-(1,2-thiazol-4-yl)-6-[6-(trifluoromethyl)pyridin-3-yl]-2,3-dihydropyridazine-4-carboxamide]
AHR [1]
  IC50: 22.7 nM
AHR [2]
  IC50: 10.6 nM
AHR [3]
  IC50: > 20000 nM

## Cn1cc(-n2nc(-c3ccc(C(F)(F)F)cc3)cc(C(=O)N[C@@H]3CCC[C@H]3O)c2=O)cn1 [Example 248, N-[(1R,2R)-2-Hydroxycyclo-pentyl]-2-(1-methyl-1H-pyrazol-4-yl)-3-oxo-6-[4-(trifluoromethyl)phenyl]-2,3-dihydropyridazine-4-carboxamide]
AHR [1]
  IC50: 31.3 nM
AHR [2]
  IC50: 14.1 nM
AHR [3]
  IC50: > 20000 nM

## CC(C)(O)CNC(=O)c1cc(-c2ccc(Cl)cc2)nn(-c2csc(Cl)c2)c1=O [Example 250, 6-(4-Chlorophenyl)-2-(5-chloro-3-thienyl)-N-(2-hydroxy-2-methylpropyl)-3-oxo-2,3-dihydropyridazine-4-carboxamide]
AHR [1]
  IC50: 10.5 nM
AHR [2]
  IC50: 16.9 nM
AHR [3]
  IC50: > 20000 nM

## C[C@H](NC(=O)c1cc(-c2ccc(C(F)(F)F)cc2)nn(-c2cn[nH]c2)c1=O)C(C)(C)O [Example 260, N-[(2S)-3-Hydroxy-3-methylbutan-2-yl]-3-oxo-2-(1H-pyrazol-4-yl)-6-[4-(trifluoromethyl)phenyl]-2,3-dihydropyridazine-4-carboxamide]
AHR [1]
  IC50: 14.4 nM
AHR [2]
  IC50: 29.4 nM
AHR [3]
  IC50: > 20000 nM

## C[C@H](NC(=O)c1cc(-c2ccc(Cl)cc2)nn(-c2cnn(C(F)F)c2)c1=O)C(C)(C)O [Example 264, 6-(4-Chlorophenyl)-2-[1-(difluoromethyl)-1H-pyrazol-4-yl]-N-[(2S)-3-hydroxy-3-methylbutan-2-yl]-3-oxo-2,3-dihydropyridazine-4-carboxamide]
AHR [1]
  IC50: 85.6 nM
AHR [2]
  IC50: 44.4 nM
AHR [3]
  IC50: > 20000 nM

## CC(C)(O)CNC(=O)c1cc(-c2ccc(OC(F)(F)F)cc2)nn(-c2cccnc2)c1=O [Example 292, N-(2-Hydroxy-2-methylpropyl)-3-oxo-2-(pyridin-3-yl)-6-[4-(trifluoromethoxy)phenyl]-2,3-dihydropyridazine-4-carboxamide]
AHR [1]
  IC50: 43.3 nM
AHR [2]
  IC50: 45.9 nM
AHR [3]
  IC50: > 20000 nM

## O=C(NC[C@H](O)C(F)F)c1cc(-c2ccc(OC(F)(F)F)cc2)nn(-c2cccnc2)c1=O [Example 295, N-[(2S)-3,3-Difluoro-2-hydroxypropyl]-3-oxo-2-(pyridin-3-yl)-6-[4-(trifluoromethoxy)phenyl]-2,3-dihydropyridazine-4-carboxamide]
AHR [1]
  IC50: 89.9 nM
AHR [2]
  IC50: 31.9 nM
AHR [3]
  IC50: > 20000 nM

## C[C@@H](CO)NC(=O)c1cc(-c2ccc(OC(F)F)cc2)nn(-c2cnn(C)c2)c1=O [Example 308, 6-[4-(Difluoromethoxy)phenyl]-N-[(2S)-1-hydroxypropan-2-yl]-2-(1-methyl-1H-pyrazol-4-yl)-3-oxo-2,3-dihydropyridazine-4-carboxamide]
AHR [1]
  IC50: 33.7 nM
AHR [2]
  IC50: 21.9 nM
AHR [3]
  IC50: > 20000 nM

## C[C@H](NC(=O)c1cc(-c2ccc(OC(F)F)cc2)nn(-c2cnn(C)c2)c1=O)C(C)(C)O [Example 309, 6-[4-(Difluoromethoxy)phenyl]-N-[(2S)-3-hydroxy-3-methylbutan-2-yl]-2-(1-methyl-1H-pyrazol-4-yl)-3-oxo-2,3-dihydropyridazine-4-carboxamide]
AHR [1]
  IC50: 40.3 nM
AHR [2]
  IC50: 16.4 nM
AHR [3]
  IC50: > 20000 nM

## C[C@H](NC(=O)c1cc(-c2ccc(N(C)C)cc2)nn(-c2cnn(C)c2)c1=O)C(C)(C)O [Example 310, 6-[4-(Dimethylamino)phenyl]-N-[(2S)-3-hydroxy-3-methylbutan-2-yl]-2-(1-methyl-1H-pyrazol-4-yl)-3-oxo-2,3-dihydropyridazine-4-carboxamide]
AHR [1]
  IC50: 1.69 nM
AHR [2]
  IC50: 1.7 nM
AHR [3]
  IC50: > 20000 nM

## C[C@@H](CO)NC(=O)c1cc(-c2ccc(N(C)C)cc2)nn(-c2cnn(C)c2)c1=O [Example 311, 6-[4-(Dimethylamino)phenyl]-N-[(2S)-1-hydroxypropan-2-yl]-2-(1-methyl-1H-pyrazol-4-yl)-3-oxo-2,3-dihydropyridazine-4-carboxamide]
AHR [1]
  IC50: 1.03 nM
AHR [2]
  IC50: 1.82 nM
AHR [3]
  IC50: > 20000 nM

## O=C(NC[C@H](O)C(F)(F)F)c1cc(-c2ccc(C(F)F)cc2)nn(-c2cccnc2)c1=O [Example 313, 6-[4-(Difluoromethyl)phenyl]-3-oxo-2-(pyridin-3-yl)-N-[(2S)-3,3,3-trifluoro-2-hydroxypropyl]-2,3-dihydropyridazine-4-carboxamide]
AHR [1]
  IC50: 3.81 nM
AHR [2]
  IC50: 2.63 nM
AHR [3]
  IC50: > 20000 nM

## O=C(NC[C@H](O)C(F)(F)F)c1cc(-c2ccc(OC(F)F)cc2)nn(-c2cccnc2)c1=O [Example 314, 6-[4-(Difluoromethoxy)phenyl]-3-oxo-2-(pyridin-3-yl)-N-[(2S)-3,3,3-trifluoro-2-hydroxypropyl]-2,3-dihydropyridazine-4-carboxamide]
AHR [1]
  IC50: 10.9 nM
AHR [2]
  IC50: 5.8 nM
AHR [3]
  IC50: > 20000 nM

Reference: patent US12522594B2, “2-heteroaryl-3-oxo-2,3-dihydropyridazine-4-carboxamides for the treatment of cancer” (Deutsches Krebsforschungszentrum, priority 2017, dated 2026)
